Experimental data from patent publication US5698411A, “Method for determining activity of enzymes in metabolically active whole cells” (priority 1995, dated 1997).

Assays:
aminopeptidase [1] = conditions: cited from earlier work
lymphocytes [2] = assay: enzyme activity with fluorogenic substrate, normal lymphocytes (Table 3A); assay type: cell-based, human
granulocytes [3] = assay: enzyme activity with fluorogenic substrate, normal granulocytes (Table 3A); assay type: cell-based, human
erythrocytes = assay: enzyme activity with fluorogenic substrate, normal erythrocytes (Table 3B); assay type: cell-based, human
monocytes [4] = assay: enzyme activity with fluorogenic substrate, normal monocytes (Table 3A); assay type: cell-based, human
lymphocytes [5] = assay: aberrant enzyme activities in febrile children, lymphocytes (Table 7); assay type: cell-based, human
monocytes [6] = assay: aberrant enzyme activities in febrile children, monocytes (Table 7); assay type: cell-based, human
granulocytes [7] = assay: aberrant enzyme activities in febrile children, granulocytes (Table 7); assay type: cell-based, human
cathepsin B = conditions: cited from earlier work
[8] = test system: substituted rhodamine 110 substrates; assay: modulator effect on substituted rhodamine 110 substrates; assay type: biochemical
Excerpt: Modulators are components used to […] the sensitivity of the enzyme for the leaving group. The modulators speed up or slow down the activity of an enzyme by changing the active site. […] Preferred modulators for particular enzymes are included in Table 1.

[9] = test system: metabolically active cell; conditions: even when buffered
Description: Viability is confirmed with Trypan Blue or PI-FDA over a time period of 10 seconds to 30 minutes. If the viability of the cell sample at between one and three million cells/mL decreases by 10% then the salt of the compound is rejected and another salt of the assay compound is synthesized.

aminopeptidase [10] = assay: inhibition of aminopeptidase reaction with (H-L-Asp)2 rhodamine 110; assay type: biochemical; conditions: approximately 10 mM; substrate (H-L-Asp)2 rhodamine 110
Excerpt: The chemical nature of the buffer is important to the reactivity Of the assay compound with the cellular enzymes. […] In addition, the assay compound hydrolysis by the enzyme occurs at an increased rate of reaction.

dipeptide reagent = assay: effect of sodium chloride on dipeptide reagent; assay type: biochemical; conditions: 7 mM, pH 6.5 to 8.7
Excerpt: Inhibitors and poisons (or toxins) are components that can be added to reduce the activity of non-targeted enzymes that provide competing reactions for the leaving group. Inhibitors are usually very selective for a particular enzyme. For example, EDTA only works with enzymes requiring Ca^+2, Mg^+2 and some other metals. […] Preferred inhibitors for particular enzymes are included in Table 1.

[11] = test system: metabolically active whole cell; assay: substrate panel in normals and HIV + patients, TB infection (Table 4); assay type: cell-based, human; design: unit not given here
Description: A panel of assay compounds are assembled consisting of Ala-aminopeptidase and Lys-aminopeptidase, Dipeptidyl peptidase IV (Ala-Ala)2 rhodamine 110 and Cathepsin D to indicate possible TB infection in AIDS related cases.
A panel Of enzymatic substrates is performed consisting of Ala-aminopeptidase and Lys-aminopeptidase, Dipeptidyl peptidase IV (Ala-Ala)2 rhodamine 110 and Cathepsin D to indicate possible TB infection in AIDS related cases.

[12] = test system: acute lympholytic Ficoll prepared lymphocytes; assay: amino peptidase activity in acute lymphocytic leukemia lymphocytes; assay type: cell-based, human; conditions: FIG. 4B
Excerpt: The cell's ability to fight off an invader lies within its genetics and therefore cell type. The "readiness" however of any genetically capable group of cells to defend is different. A measure of this "readiness" is manifest in the available proteolytic enzymes contained within vacuoles or on the surface of the cell. The assay compound hydrolysis rate increases with increased mass of enzymes giving a picture of immune competence both in number of cells and activity level. […] Images were generated using Universal Imaging.

CC(C)C[C@H](NC(=O)[C@@H](O)[C@H](N)Cc1ccccc1)C(=O)O [bestatin]
selectively inhibits aminopeptidase: inhibition of aminopeptidase (aminopeptidase [1])

O=C1OC2(c3ccc(OC4O[C@H](CO)[C@@H](O)[C@H](O)[C@H]4O)cc3Oc3cc(OC4O[C@H](CO)[C@@H](O)[C@H](O)[C@H]4O)ccc32)c2ccccc21 (some centres unmarked) [DIGLUC (FL)]
0.110: NORMAL E[…] ACTIVITY MEAN (erythrocytes)
0.23: NORMAL LEUKOCYTE ENZYME ACTIVITY LYMPHS Mean (lymphocytes [2])
0.45: NORMAL LEUKOCYTE ENZYME ACTIVITY GRANS Mean (granulocytes [3])

CC(=O)Oc1ccc2c(c1)Oc1cc(OC(C)=O)ccc1C21OC(=O)c2ccccc21 [FDA, fluorescein diacetate, reference compound]
13.38: NORMAL LEUKOCYTE ENZYME ACTIVITY LYMPHS Mean (lymphocytes [2])
66.25: NORMAL LEUKOCYTE ENZYME ACTIVITY MONOS Mean (monocytes [4])
.smallcircle.: aberrant enzyme activity, LYMPHS (lymphocytes [5]; P88 Enteritis) | aberrant enzyme activity, LYMPHS (lymphocytes [5]; P97 Pyelonephritis) | aberrant enzyme activity, LYMPHS (lymphocytes [5]; P99 Viral Syndrome) | aberrant enzyme activity, LYMPHS (lymphocytes [5]; P102 UTI) | aberrant enzyme activity, MONOS (monocytes [6]; P88 Enteritis) | aberrant enzyme activity, MONOS (monocytes [6]; P99 Viral Syndrome) | aberrant enzyme activity, MONOS (monocytes [6]; P102 UTI) | aberrant enzyme activity, GRANS (granulocytes [7]; P88 Enteritis) | aberrant enzyme activity, GRANS (granulocytes [7]; P99 Viral Syndrome) | aberrant enzyme activity, GRANS (granulocytes [7]; P102 UTI)
0.126: NORMAL E[…] ACTIVITY MEAN (erythrocytes)

CC(=O)N[C@@H](CC(C)C)C(=O)N[C@@H](CC(C)C)C(=O)N[C@H](C=O)CCCNC(=N)N [leupeptin]
selectively inhibits cathepsin B: inhibition of cathepsin B (cathepsin B)

O[C@H](CS)[C@H](O)CS [Dithiothreitol (DTT), Dithiothreitol]
effective modulator: modulator effect [8]

Br.Cc1ncc(C)n2nc(CCc3nc(-c4ccccc4)cn3C)nc12 [hydrogen bromide (HBr), hydrogen bromide]
kills cells: cell killing [9]

(Z-Thr--Pro)2 Rho 110 [Z-TP 8.7]
76.00: NORMAL LEUKOCYTE ENZYME ACTIVITY MONOS Mean (monocytes [4])
.smallcircle.: aberrant enzyme activity, LYMPHS (lymphocytes [5]; P97 Pyelonephritis) | aberrant enzyme activity, LYMPHS (lymphocytes [5]; P103 Viral Syndrome) | aberrant enzyme activity, MONOS (monocytes [6]; P97 Pyelonephritis) | aberrant enzyme activity, MONOS (monocytes [6]; P103 Viral Syndrome) | aberrant enzyme activity, GRANS (granulocytes [7]; P92 Adenitis) | aberrant enzyme activity, GRANS (granulocytes [7]; P97 Pyelonephritis) | aberrant enzyme activity, GRANS (granulocytes [7]; P103 Viral Syndrome)
35.01: NORMAL LEUKOCYTE ENZYME ACTIVITY LYMPHS Mean (lymphocytes [2])
- (>0.25 Decrease over normal range): aberrant enzyme activity, LYMPHS (lymphocytes [5]; P92 Adenitis) | aberrant enzyme activity, MONOS (monocytes [6]; P92 Adenitis)
0.161: NORMAL E[…] ACTIVITY MEAN (erythrocytes)
82.35: NORMAL LEUKOCYTE ENZYME ACTIVITY GRANS Mean (granulocytes [3])

[Ca+2].[Cl-].[Cl-] [calcium chloride]
inhibitory: inhibitory to the enzyme reaction (aminopeptidase [10])

[Cl-].[Na+] [sodium chloride]
slightly inhibitory effect: inhibitory effect on dipeptide reagent (dipeptide reagent)

O[C@H](CS)[C@@H](O)CS [dithioerythritol (DTE), dithioerythritol]
does not change the sensitivity: sensitivity of the leaving group for the enzyme ([8]; 1 mM, Ala-Gly and Leu-Gly substrates)
decreases the sensitivity: sensitivity of the substituted rhodamine 110 substrates ([8]; 1 mM, Pro, Gly, Gln-Ser, Val-Lys-Val-Lys, Ala-Ala, Ala-Ala-Ala-Ala substrates)

CC(=O)Oc1cc2c(cc1Cl)C(c1ccccc1C(=O)O)c1cc(Cl)c(OC(C)=O)cc1O2 [DCFH-DA MES, reference compound]
+ (>0.25 Increase over normal range): aberrant enzyme activity, LYMPHS (lymphocytes [5]; P89 Viral Stomatitis) | aberrant enzyme activity, LYMPHS (lymphocytes [5]; P92 Adenitis) | aberrant enzyme activity, LYMPHS (lymphocytes [5]; P95 Viral Syndrome) | aberrant enzyme activity, LYMPHS (lymphocytes [5]; P96 Viral Syndrome) | aberrant enzyme activity, LYMPHS (lymphocytes [5]; P101 Fever -- Unknown Origin) | aberrant enzyme activity, LYMPHS (lymphocytes [5]; P103 Viral Syndrome) | aberrant enzyme activity, MONOS (monocytes [6]; P89 Viral Stomatitis) | aberrant enzyme activity, MONOS (monocytes [6]; P92 Adenitis) | aberrant enzyme activity, MONOS (monocytes [6]; P95 Viral Syndrome) | aberrant enzyme activity, MONOS (monocytes [6]; P96 Viral Syndrome) | aberrant enzyme activity, MONOS (monocytes [6]; P97 Pyelonephritis) | aberrant enzyme activity, MONOS (monocytes [6]; P101 Fever -- Unknown Origin) | aberrant enzyme activity, MONOS (monocytes [6]; P103 Viral Syndrome) | aberrant enzyme activity, GRANS (granulocytes [7]; P89 Viral Stomatitis) | aberrant enzyme activity, GRANS (granulocytes [7]; P92 Adenitis) | aberrant enzyme activity, GRANS (granulocytes [7]; P95 Viral Syndrome) | aberrant enzyme activity, GRANS (granulocytes [7]; P96 Viral Syndrome) | aberrant enzyme activity, GRANS (granulocytes [7]; P97 Pyelonephritis) | aberrant enzyme activity, GRANS (granulocytes [7]; P101 Fever -- Unknown Origin) | aberrant enzyme activity, GRANS (granulocytes [7]; P103 Viral Syndrome)
4.11: NORMAL LEUKOCYTE ENZYME ACTIVITY LYMPHS Mean (lymphocytes [2])
7.49: NORMAL LEUKOCYTE ENZYME ACTIVITY GRANS Mean (granulocytes [3])
12.28: NORMAL LEUKOCYTE ENZYME ACTIVITY MONOS Mean (monocytes [4])
0.286: NORMAL E[…] ACTIVITY MEAN (erythrocytes)
.smallcircle.: aberrant enzyme activity, LYMPHS (lymphocytes [5]; P88 Enteritis) | aberrant enzyme activity, LYMPHS (lymphocytes [5]; P97 Pyelonephritis) | aberrant enzyme activity, LYMPHS (lymphocytes [5]; P99 Viral Syndrome) | aberrant enzyme activity, LYMPHS (lymphocytes [5]; P102 UTI) | aberrant enzyme activity, MONOS (monocytes [6]; P88 Enteritis) | aberrant enzyme activity, MONOS (monocytes [6]; P99 Viral Syndrome) | aberrant enzyme activity, MONOS (monocytes [6]; P102 UTI) | aberrant enzyme activity, GRANS (granulocytes [7]; P88 Enteritis) | aberrant enzyme activity, GRANS (granulocytes [7]; P99 Viral Syndrome) | aberrant enzyme activity, GRANS (granulocytes [7]; P102 UTI)

CC(C)C[C@H](N)C(=O)Nc1ccc2c(c1)Oc1cc(NC(=O)[C@@H](N)CC(C)C)ccc1C21OC(=O)c2ccccc21 [LEU, (Leu)2 Rho 110]
130.5: MEAN DELTA FL ([11]; HIV + PATIENTS)
.smallcircle.: aberrant enzyme activity, LYMPHS (lymphocytes [5]; P97 Pyelonephritis) | aberrant enzyme activity, LYMPHS (lymphocytes [5]; P99 Viral Syndrome) | aberrant enzyme activity, LYMPHS (lymphocytes [5]; P102 UTI) | aberrant enzyme activity, MONOS (monocytes [6]; P99 Viral Syndrome) | aberrant enzyme activity, MONOS (monocytes [6]; P102 UTI) | aberrant enzyme activity, GRANS (granulocytes [7]; P97 Pyelonephritis) | aberrant enzyme activity, GRANS (granulocytes [7]; P99 Viral Syndrome) | aberrant enzyme activity, GRANS (granulocytes [7]; P102 UTI)
lost their enzymatic activity: amino peptidase activity [12]
+ (>0.25 Increase over normal range): aberrant enzyme activity, LYMPHS (lymphocytes [5]; P88 Enteritis) | aberrant enzyme activity, LYMPHS (lymphocytes [5]; P89 Viral Stomatitis) | aberrant enzyme activity, LYMPHS (lymphocytes [5]; P92 Adenitis) | aberrant enzyme activity, LYMPHS (lymphocytes [5]; P95 Viral Syndrome) | aberrant enzyme activity, LYMPHS (lymphocytes [5]; P96 Viral Syndrome) | aberrant enzyme activity, LYMPHS (lymphocytes [5]; P101 Fever -- Unknown Origin) | aberrant enzyme activity, LYMPHS (lymphocytes [5]; P103 Viral Syndrome) | aberrant enzyme activity, MONOS (monocytes [6]; P88 Enteritis) | aberrant enzyme activity, MONOS (monocytes [6]; P89 Viral Stomatitis) | aberrant enzyme activity, MONOS (monocytes [6]; P92 Adenitis) | aberrant enzyme activity, MONOS (monocytes [6]; P95 Viral Syndrome) | aberrant enzyme activity, MONOS (monocytes [6]; P96 Viral Syndrome) | aberrant enzyme activity, MONOS (monocytes [6]; P97 Pyelonephritis) | aberrant enzyme activity, MONOS (monocytes [6]; P101 Fever -- Unknown Origin) | aberrant enzyme activity, MONOS (monocytes [6]; P103 Viral Syndrome) | aberrant enzyme activity, GRANS (granulocytes [7]; P88 Enteritis) | aberrant enzyme activity, GRANS (granulocytes [7]; P89 Viral Stomatitis) | aberrant enzyme activity, GRANS (granulocytes [7]; P92 Adenitis) | aberrant enzyme activity, GRANS (granulocytes [7]; P95 Viral Syndrome) | aberrant enzyme activity, GRANS (granulocytes [7]; P96 Viral Syndrome) | aberrant enzyme activity, GRANS (granulocytes [7]; P101 Fever -- Unknown Origin) | aberrant enzyme activity, GRANS (granulocytes [7]; P103 Viral Syndrome)
259.6: MEAN DELTA FL ([11]; NORMALS)
